Earlier results, collected in patent US20100069490A1 (priority 2006, published 2010).
Structures can show the parent of a compound that is named as a salt.

Tests used:
rhino mouse model = conditions: applied locally
[1] = in vivo and in vitro
[2] = system: human polymorphonuclear leukocytes
lipase = conditions: pure or in combination with synergisms

COc1ccc(-c2ccc3cc(C(=O)O)ccc3c2)cc1C12CC3CC(CC(C3)C1)C2 [Adapalene, 6-[3-(1-adamantyl)-4-methoxypheny]-2-naphthanoic acid]
comedolitic activity (rhino mouse model): comedolitic
anti-inflammatory activity versus reference retinoids [1]: superior to the reference retinoids
inhibition of chemiotaxic and chemiokinetic response [2]: inhibits the chemiotaxic and chemiokinetic response

CCOC(=O)CC(O)(CC(=O)OCC)C(=O)OCC [Triethyl citrate, Triethyl-2-hydroxypropan-1,2,3-tricarboxylate]
inhibition of hydrolysis of the triglycerides (lipase): able to inhibit hydrolysis of the triglycerides
antibacterial activity (bacteria): has antibacterial activity
